From PubChem BioAssay (NCI) come the findings set out here.

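Test compounds were applied to cells in 96-well plates for 48 hours at 5 doses. Abbreviation: GI50, concentration required for 50% inhibition of growth. TGI is the concentration that stops growth completely.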 A value given as a limit tells only on which side of the number the result lay.

In one assay the test system is A498 renal. In words: growth of human tumour cells (NCI), 48 h.
`CC1(C)N=C(N)N=C(N)N1c1ccc(CCC(=O)Nc2ccc(S(=O)(=O)F)cc2)c(Cl)c1`: the GI50 was 61900 nM and the TGI is greater than 100000 nM.
As for `COC(=O)c1ccc2[nH]c(O)c(C(=Nc3ccc(N(C)C(=O)CN4CCN(C)CC4)cc3)c3ccc4c(c3)OCO4)c2c1`, the GI50 is 703 nM and the TGI came out at 2180 nM.
On the same counts, the results for `COc1ccc2c(c1)OC1=C(C(=O)OC1)C2c1cc(OC)c2c(c1)OCCO2` (stereo not drawn) are 24.9 nM and 232 nM.
On the same counts, the results for `N[C@H](C(=O)O)[C@@H]1CC(Cl)=NO1` are 45500 nM and greater than 887000 nM.
`Oc1ccc2ccccc2c1N=Nc1cccc2ccccc12` had a TGI greater than 100000 nM.
Turning to `COc1ccc2c(c1)NC1=C(C(=O)OC1)C2c1cc(OC)c(OC)c(OC)c1` (stereo not drawn), the GI50 is less than 10 nM and the TGI is less than 10 nM.

For another assay, the system named is CCRF-CEM leukemia. In words: growth of human tumour cells (NCI), 48 h.
Turning to `CC1(C)N=C(N)N=C(N)N1c1ccc(CCC(=O)Nc2ccc(S(=O)(=O)F)cc2)c(Cl)c1`, the GI50 is 522 nM and the TGI is greater than 100 µM.
For the compound `COC(=O)c1ccc2[nH]c(O)c(C(=Nc3ccc(N(C)C(=O)CN4CCN(C)CC4)cc3)c3ccc4c(c3)OCO4)c2c1`, the GI50 is 388 nM and the TGI came out at 6.25 µM.
In the case of `COc1ccc2c(c1)OC1=C(C(=O)OC1)C2c1cc(OC)c2c(c1)OCCO2` (stereo not drawn), the GI50 is 64.7 nM.
As for `N[C@H](C(=O)O)[C@@H]1CC(Cl)=NO1`, the GI50 is 5760 nM and the TGI came to 700 µM.
With `Oc1ccc2ccccc2c1N=Nc1cccc2ccccc12`, the TGI was greater than 100 µM.
For `COc1ccc2c(c1)NC1=C(C(=O)OC1)C2c1cc(OC)c(OC)c(OC)c1` (stereo not drawn), the GI50 is less than 10 nM and the TGI is greater than 100 µM.

Another assay relates to HOP-62 NSCLC. In words: growth of human tumour cells (NCI), 48 h.
In the case of `CC1(C)N=C(N)N=C(N)N1c1ccc(CCC(=O)Nc2ccc(S(=O)(=O)F)cc2)c(Cl)c1`, the GI50 was 1860 nM and the TGI was greater than 100 µM.
As for `COC(=O)c1ccc2[nH]c(O)c(C(=Nc3ccc(N(C)C(=O)CN4CCN(C)CC4)cc3)c3ccc4c(c3)OCO4)c2c1`, the GI50 is 939 nM and the TGI stood at 4.53 µM.
Take `COc1ccc2c(c1)OC1=C(C(=O)OC1)C2c1cc(OC)c2c(c1)OCCO2` (stereo not drawn): the GI50 is 51.2 nM and the TGI was greater than 100 µM.
On the same counts, the results for `N[C@H](C(=O)O)[C@@H]1CC(Cl)=NO1` are 6270 nM and 170 µM.
The compound `Oc1ccc2ccccc2c1N=Nc1cccc2ccccc12` returned a TGI greater than 100 µM.
With `COc1ccc2c(c1)NC1=C(C(=O)OC1)C2c1cc(OC)c(OC)c(OC)c1` (stereo not drawn), the GI50 is less than 10 nM and the TGI turned out to be 42.5 µM.

The subject of another assay is IGROV1 ovarian. In words: growth of human tumour cells (NCI), 48 h.
In the case of `CC1(C)N=C(N)N=C(N)N1c1ccc(CCC(=O)Nc2ccc(S(=O)(=O)F)cc2)c(Cl)c1`, the GI50 is 55.1 nM and the TGI is greater than 86.5 µM.
For `COC(=O)c1ccc2[nH]c(O)c(C(=Nc3ccc(N(C)C(=O)CN4CCN(C)CC4)cc3)c3ccc4c(c3)OCO4)c2c1` the same measures were 176 nM and 1.52 µM.
On the same counts, the results for `COc1ccc2c(c1)OC1=C(C(=O)OC1)C2c1cc(OC)c2c(c1)OCCO2` (stereo not drawn) are 128 nM and greater than 100 µM.
For `N[C@H](C(=O)O)[C@@H]1CC(Cl)=NO1` the same measures were 4410 nM and 465 µM.
Take `Oc1ccc2ccccc2c1N=Nc1cccc2ccccc12`: the TGI was greater than 100 µM.
Consider `COc1ccc2c(c1)NC1=C(C(=O)OC1)C2c1cc(OC)c(OC)c(OC)c1` (stereo not drawn), for which the GI50 was less than 10 nM and the TGI is greater than 100 µM.

In the next assay the test system is MDA-MB-435. In words: growth of human tumour cells (NCI), 48 h.
For `CC1(C)N=C(N)N=C(N)N1c1ccc(CCC(=O)Nc2ccc(S(=O)(=O)F)cc2)c(Cl)c1`, the GI50 was 296 nM and the TGI was greater than 100000 nM.
For `COC(=O)c1ccc2[nH]c(O)c(C(=Nc3ccc(N(C)C(=O)CN4CCN(C)CC4)cc3)c3ccc4c(c3)OCO4)c2c1` the same measures were 724 nM and 2190 nM.
On the same counts, the results for `COc1ccc2c(c1)OC1=C(C(=O)OC1)C2c1cc(OC)c2c(c1)OCCO2` (stereo not drawn) are 21 nM and 56 nM.
Take `N[C@H](C(=O)O)[C@@H]1CC(Cl)=NO1`: the GI50 is 25300 nM and the TGI was greater than 645000 nM.
The compound `Oc1ccc2ccccc2c1N=Nc1cccc2ccccc12` had a TGI greater than 100000 nM.
`COc1ccc2c(c1)NC1=C(C(=O)OC1)C2c1cc(OC)c(OC)c(OC)c1` (stereo not drawn): the GI50 was less than 10 nM and the TGI is less than 16.4 nM.

In the next assay the test system is RPMI-8226 leukemia. In words: growth of human tumour cells (NCI), 48 h.
In the case of `CC1(C)N=C(N)N=C(N)N1c1ccc(CCC(=O)Nc2ccc(S(=O)(=O)F)cc2)c(Cl)c1`, the GI50 was 515 nM and the TGI was greater than 100 µM.
For the compound `COC(=O)c1ccc2[nH]c(O)c(C(=Nc3ccc(N(C)C(=O)CN4CCN(C)CC4)cc3)c3ccc4c(c3)OCO4)c2c1`, the GI50 was 655 nM and the TGI came out at 2.83 µM.
On the same counts, the results for `COc1ccc2c(c1)OC1=C(C(=O)OC1)C2c1cc(OC)c2c(c1)OCCO2` (stereo not drawn) are 87.1 nM and greater than 100 µM.
On to `N[C@H](C(=O)O)[C@@H]1CC(Cl)=NO1`, for which the GI50 is 11100 nM and the TGI came out at 811 µM.
Turning to `Oc1ccc2ccccc2c1N=Nc1cccc2ccccc12`, the TGI was greater than 100 µM.
Take `COc1ccc2c(c1)NC1=C(C(=O)OC1)C2c1cc(OC)c(OC)c(OC)c1` (stereo not drawn): the GI50 is less than 10 nM and the TGI is greater than 100 µM.

In another assay the test system is SF-539 CNS. As to the kind of experiment: growth of human tumour cells (NCI), 48 h.
Take `CC1(C)N=C(N)N=C(N)N1c1ccc(CCC(=O)Nc2ccc(S(=O)(=O)F)cc2)c(Cl)c1`: the GI50 was 509 nM and the TGI was greater than 38.7 µM.
Consider `COC(=O)c1ccc2[nH]c(O)c(C(=Nc3ccc(N(C)C(=O)CN4CCN(C)CC4)cc3)c3ccc4c(c3)OCO4)c2c1`, for which the GI50 was 341 nM and the TGI was found to be 1.31 µM.
As for `COc1ccc2c(c1)OC1=C(C(=O)OC1)C2c1cc(OC)c2c(c1)OCCO2` (stereo not drawn), the GI50 was 48 nM and the TGI was greater than 100 µM.
On the same counts, the results for `N[C@H](C(=O)O)[C@@H]1CC(Cl)=NO1` are 25400 nM and 916 µM.
Consider `Oc1ccc2ccccc2c1N=Nc1cccc2ccccc12`, for which the TGI turned out to be 76.3 µM.
`COc1ccc2c(c1)NC1=C(C(=O)OC1)C2c1cc(OC)c(OC)c(OC)c1` (stereo not drawn): the GI50 is less than 10 nM and the TGI was 18.6 µM.

The subject of a further assay is SW-620 colon. In words: growth of human tumour cells (NCI), 48 h.
For the compound `CC1(C)N=C(N)N=C(N)N1c1ccc(CCC(=O)Nc2ccc(S(=O)(=O)F)cc2)c(Cl)c1`, the GI50 was 144 nM and the TGI is greater than 100 µM.
For `COC(=O)c1ccc2[nH]c(O)c(C(=Nc3ccc(N(C)C(=O)CN4CCN(C)CC4)cc3)c3ccc4c(c3)OCO4)c2c1` the same measures were 348 nM and 2.21 µM.
On the same counts, the results for `COc1ccc2c(c1)OC1=C(C(=O)OC1)C2c1cc(OC)c2c(c1)OCCO2` (stereo not drawn) are 39.3 nM and greater than 100 µM.
`N[C@H](C(=O)O)[C@@H]1CC(Cl)=NO1`: the GI50 was 7480 nM and the TGI was greater than 1000 µM.
`Oc1ccc2ccccc2c1N=Nc1cccc2ccccc12` gave a TGI greater than 100 µM.
Regarding `COc1ccc2c(c1)NC1=C(C(=O)OC1)C2c1cc(OC)c(OC)c(OC)c1` (stereo not drawn), the GI50 was less than 10 nM and the TGI is greater than 100 µM.

In another assay the test system is UACC-62 melanoma. As to the kind of experiment: growth of human tumour cells (NCI), 48 h.
In the case of `CC1(C)N=C(N)N=C(N)N1c1ccc(CCC(=O)Nc2ccc(S(=O)(=O)F)cc2)c(Cl)c1`, the GI50 was 287 nM and the TGI was greater than 100 µM.
For `COC(=O)c1ccc2[nH]c(O)c(C(=Nc3ccc(N(C)C(=O)CN4CCN(C)CC4)cc3)c3ccc4c(c3)OCO4)c2c1` the same measures were 2100 nM and 6.86 µM.
For `COc1ccc2c(c1)OC1=C(C(=O)OC1)C2c1cc(OC)c2c(c1)OCCO2` (stereo not drawn) the same measures were 45.6 nM and greater than 100 µM.
On the same counts, the results for `N[C@H](C(=O)O)[C@@H]1CC(Cl)=NO1` are 35100 nM and 401 µM.
Take `Oc1ccc2ccccc2c1N=Nc1cccc2ccccc12`: the TGI is greater than 100 µM.
Consider `COc1ccc2c(c1)NC1=C(C(=O)OC1)C2c1cc(OC)c(OC)c(OC)c1` (stereo not drawn), for which the GI50 is less than 10 nM and the TGI is greater than 100 µM.

The subject of another assay is UO-31 renal. In words: growth of human tumour cells (NCI), 48 h.
For the compound `CC1(C)N=C(N)N=C(N)N1c1ccc(CCC(=O)Nc2ccc(S(=O)(=O)F)cc2)c(Cl)c1`, the GI50 is 63.6 µM and the TGI was greater than 100 µM.
As to `COC(=O)c1ccc2[nH]c(O)c(C(=Nc3ccc(N(C)C(=O)CN4CCN(C)CC4)cc3)c3ccc4c(c3)OCO4)c2c1`, the GI50 is 1.3 µM and the TGI came to 3.71 µM.
On the same counts, the results for `COc1ccc2c(c1)OC1=C(C(=O)OC1)C2c1cc(OC)c2c(c1)OCCO2` (stereo not drawn) are 0.071 µM and greater than 100 µM.
On the same counts, the results for `N[C@H](C(=O)O)[C@@H]1CC(Cl)=NO1` are 26.6 µM and 772 µM.
In the case of `Oc1ccc2ccccc2c1N=Nc1cccc2ccccc12`, the TGI is greater than 100 µM.
On the same count and under the same terms, for `COc1ccc2c(c1)NC1=C(C(=O)OC1)C2c1cc(OC)c(OC)c(OC)c1` (stereo not drawn) the value was greater than 100 µM.
